In US20240115582A1, “USE OF SODIUM TRANS-[TETRACHLORIDOBIS(1H-INDAZOLE)RUTHENATE(III)] FOR TREATING CANCERS” (Bold Therapeutics Inc., priority 2020, published 2024):

Columns and labels:
BRAFMT CRC cells [1] = assay: Combination of BOLD-100 with ATRi, apoptosis (PARP/cleaved caspase-3 WB, caspase 3/7 activity, PI flow cytometry); type: cell-based; details: for cell death following BOLD-100 treatment: co-treated with BOLD-100 for 48 h, BRAFMT CRC; for apoptosis when combined with BOLD-100: in particular in BRAFMT CRC cells
Description: HT-29 and VACO432 CRC cells were co-treated with BOLD-100 and ATRi AZD6738, M4344 or Berzosertib for 48 h and apoptosis was assessed using WB analyses for PARP and cleaved caspase-3 (A) and caspase 3/7 activity assays (B). C. BRAFMT CRC cells VACO432, COL0205 and LIM2405 were co-treated with BOLD-100 and ATRi AZD6738, M4344 or Berzosertib for 48 h and apoptosis assessed by PI flow cytometry.

BRAFMT CRC cells [2] = assay: Combination of BOLD-100 with ATRi, cell viability (CellTitre-Glo, clonogenic survival); type: cell-based; details: in particular in BRAFMT CRC cells
Description: FDA approved drug screen targeting the significant pathways deregulated following BOLD-100 treatment in BRAFMT CRC. BRAFMT HT-29 (A) and VACO432 (B) cells were co-treated with BOLD-100, IC10, IC20, IC30 doses of 60 FDA approved drugs alone or in combination with BOLD-100 for 72 h and cell viability determined using the CellTitre-Glo® assay. Robust z-scores were calculated for combination treatment and normalized to effect of 50 μM BOLD-100. Combinations with r-Z score of <−1 were considered to enhance sensitivity to BOLD-100 treatment. Cell viability for combined BOLD-100/AZD6738 treatment was graphed using GraphPad Prism 8.0. C. Clonogenic survival assays in BRAFMT LIM2405, VACO432 and RKO CRC cells following co-treatment with BOLD-100 and AZD6738 for 14 days. Survival was graphed using GraphPad Prism 8.0.

Degradation in water = type: physicochemical
Description: One skilled in the art will recognize that limiting this degradation reaction would be advantageous to obtaining the highest purity product. […] In one aspect of the invention, the sodium trans-[tetrachlorobis(1H-indazole)ruthenate (III)] solution is cooled to 4° C. during the formulation process. In another aspect of the invention, the sodium trans-[tetrachlorobis(1H-indazole)ruthenate (III)] solution is cooled to 2-8° C. during the formulation process. In another aspect of the invention, the sodium trans-[tetrachlorobis(1H-indazole)ruthenate (III)] solution is cooled to 2-15° C. during the formulation process.

[3] = tested on: pATR^T1989, pChk1^S345 and γH2AX; assay: Western blotting of ATR/CHK1 DNA damage signalling; type: cell-based
Description: (§1) Methods: Cell Titre Glo, Annexin V/PI high content screening, Flow Cytometry, Western blotting, Caspase 8, 3/7 activity, ROS-Glo^a H2O2, RNAi assays were used. RNA seq and bioinformatic analyses were performed on BOLD-100-treated BRAFMT/WT CRC cells, using the Illumina Novoseq platform and Reactome Pathway Analysis.
(§2) A. BRAFMT CRC cells were treated with BOLD-100 for the indicated time and ATR/KAP1/CKH1/CHK2 expression/activity measured by WB. B. CRC cells were co-treated with BOLD-100 and AZD6738 for 48 h and phosphorylation/expression of ATR/KAP1 and the downstream kinases measured. C. CRC cells were treated with BOLD-100 for the indicated times and generation of ROS measured using a ROS-Glo™ H2O2 assay. D. and E. WB and caspase 3/7 activity in cells pre-treated with NAC for 3 h followed by treatment with BOLD-100 for an additional 24h.

BRAFMT, MSS CRC cells = assay: CellTitre-Glo and Annexin V/PI sensitivity studies; type: cell-based; details: isogenic paired and non-isogenic V600E BRAFMT and BRAFWT panel
Description: Materials: A panel of isogenic paired and non-isogenic V600E BRAFMT and BRAFWT cells were used. BOLD-100, a ruthenium-based small molecule inhibitor, was obtained from BOLD Therapeutics. A FDA approved compound library was used.
as §1
As illustrated in FIG. 2. BRAFMT, CMS1 CRC cells show increased sensitivity to treatment with BOLD-100. Upper: A. BRAFMT V600E HT-29 cells were treated with BOLD-100 for the indicated time and GRP78, CHOP and PARP levels determined by Western blotting (WB). B. HT-29 cells were treated with BOLD-100 for the indicated times and HSPA5, ATF4 and DDIT3 mRNA levels quantified using RT-PCR. Raw values were normalised to the expression of housekeeping genes ACTB and GAPDH and analysed using the ΔΔCT method. Lower: A. CRC cells were treated with increasing concentrations of BOLD-100 and cell viability determined using CellTitre-Glo® assay. IC50 was calculated using Prism software package. B. CRC cells were treated with BOLD-100 for 48 h. Apoptosis was assessed using Annexin V/propidium iodide (PI) staining by high-content screening. […]

BRAFMT CRC cells [4] = assay: Cell death / caspase 3/7 activity after BOLD-100; type: cell-based
Description: as §1
A.: Positive hits for primary siRNA screen against 178 target TSG. sRNA was carried out for 24 h, followed by treatment with BOLD-100 for 48 h. Forty-Six targets were identified, resulting in either increased sensitivity or resistance to BOLD-100 (based on robust z-score ±1). B. Positive hits from secondary siRNA screen using 2 additional siRNA sequences against 46 targets. C. CRC cells were pre-incubated with DMSO or 20 μM of the pan-caspase inhibitor, z-VAD-FMK for 3 h followed by treatment with BOLD-100 for 48 h following which, apoptosis was assessed by WB analyses for PARP (top) and caspase-3/7 activity assay (bottom). […] Apoptosis was assessed by WB analysis for PARP (left) and caspase-3/7 activity (right). […] Apoptosis was determined by WB for PARP (left) and caspase-3/7 activity levels (right).
A. BRAFMT CRC cells were treated with BOLD-100 for the indicated time and ATR/KAP1/CKH1/CHK2 expression/activity measured by WB. B. CRC cells were co-treated with BOLD-100 and AZD6738 for 48 h and phosphorylation/expression of ATR/KAP1 and the downstream kinases measured. […]

GRP78, CHOP = assay: Western blotting of UPR markers after BOLD-100; type: cell-based; details: treatment with BOLD-100
Description: as §1
As illustrated in FIG. 2. BRAFMT, CMS1 CRC cells show increased sensitivity to treatment with BOLD-100. Upper: A. BRAFMT V600E HT-29 cells were treated with BOLD-100 for the indicated time and GRP78, CHOP and PARP levels determined by Western blotting (WB). B. HT-29 cells were treated with BOLD-100 for the indicated times and HSPA5, ATF4 and DDIT3 mRNA levels quantified using RT-PCR. Raw values were normalised to the expression of housekeeping genes ACTB and GAPDH and analysed using the ΔΔCT method. Lower: A. CRC cells were treated with increasing concentrations of BOLD-100 and cell viability determined using CellTitre-Glo® assay. IC50 was calculated using Prism software package. B. CRC cells were treated with BOLD-100 for 48 h. Apoptosis was assessed using Annexin V/propidium iodide (PI) staining by high-content screening. The graph indicates the percentage of positive stained cells following treatment with 100 μM BOLD-100. Mean of 3 independent experiments is shown.

BRAFMT CRC cells [5] = assay: ROS-Glo H2O2 assay; type: cell-based
Description: as §1, §2

In the case of `C[C@@H]1COCCN1c1cc(C2([S@](C)(=N)=O)CC2)nc(-c2cc[nH]c3nccc2-3)n1` [AZD6738], the “cell death following BOLD-100 treatment” value (BRAFMT CRC cells [1]) is reported as “increase cell death”, the “apoptosis when combined with BOLD-100” value (BRAFMT CRC cells [1]) is reported as “apoptosis” and the “interaction when combined with BOLD-100” value (BRAFMT CRC cells [2]) is reported as “strong synergy”.
In the case of `[Cl][Ru]([Cl])([Cl])[Cl].[Na+].c1ccc2[nH]ncc2c1.c1ccc2[nH]ncc2c1` [BOLD-100, Sodium trans-[tetrachloridobis(1H-indazole)ruthenate(III)]], the stability in water (Degradation in water) is reported as “can degrade in water to Compound A”, the “pATR^T1989, pChk1^S345 and γH2AX expression levels” value ([3]; BRAFMT cells) is reported as “rapid and potent increases” and the IC50 (BRAFMT, MSS CRC cells) is reported as 9.25 to 31 µM. The “type of cell death” value (BRAFMT CRC cells [4]) was “caspase-8 dependent cell death”, the GRP78 levels (GRP78, CHOP) was “early decreases” and the “expression levels of the endoplasmic reticulum stress protein CHOP” value (GRP78, CHOP) was “increases”. For the same compound, the ROS (BRAFMT CRC cells [5]) was “acute increases in ROS”.
In the case of `CNCc1ccc(-c2cc(-c3nc(-c4ccc(S(=O)(=O)C(C)C)cc4)cnc3N)on2)cc1` [Berzosertib], the “cell death following BOLD-100 treatment” value (BRAFMT CRC cells [1]) is reported as “increase cell death”.
For `Nc1nn2cc(F)cnc2c1C(=O)Nc1cncc(F)c1N1CCC(C(=O)N2CCN(C3COC3)CC2)CC1` [M4344], the “cell death following BOLD-100 treatment” value (BRAFMT CRC cells [1]) was “increase cell death”, the “apoptosis when combined with BOLD-100” value (BRAFMT CRC cells [1]) was “apoptosis” and the “interaction when combined with BOLD-100” value (BRAFMT CRC cells [2]) was “strong synergy”.
With `CC(=O)N[C@@H](CS)C(=O)O` [NAC] the “effect on BOLD-100 induced CHOP, pATR^T1989, pChk1^S345 and γH2AX levels” value ([3]; ROS scavenger, BRAFMT CRC cells) was “abrogated” and the “effect on cell death following BOLD-100 treatment” value (BRAFMT CRC cells [4]; ROS scavenger) was “rescued cell death”.
